Reference: ChEMBL document CHEMBL1201862, “PubChem BioAssay data set” (2004)
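The compound was tested at five concentrations on cells cultured in 96-well plates, with a 48-hour exposure period. The concentration for 50% growth inhibition is given as GI50.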 The source made the active and inactive calls. Rule as the data show it: active = GI50 up to about 1.1 µM and inactive = higher.

How the values were obtained:
Assay in all cases: NCI-60 cell line screen, 48 h
IGROV-1 = test system: IGROV-1
MDA-N = test system: MDA-N
SW-620 = test system: SW-620
U-251 = test system: U-251
HCC 2998 = test system: HCC 2998
HT-29 = test system: HT-29
A549 = test system: A549
OVCAR-5 = test system: OVCAR-5
UACC-62 = test system: UACC-62
K562 = test system: K562
DU-145 = test system: DU-145
T47D = test system: T47D
COLO 205 = test system: COLO 205
ACHN = test system: ACHN
SK-MEL-2 = test system: SK-MEL-2
RPMI-8226 = test system: RPMI-8226
TK-10 = test system: TK-10
NCI/ADR-RES = test system: NCI/ADR-RES
RXF 393 = test system: RXF 393

Measured: GI50

CC(C)(C)c1ccc(C(O)(c2ccc(C(C)(C)C)cc2)c2ccc(C(C)(C)C)cc2)cc1
inactive: IGROV-1 > 100 µM | MDA-N > 100 µM | SW-620 > 100 µM | U-251 > 100 µM | HCC 2998 > 100 µM | HT-29 > 100 µM | A549 > 100 µM | OVCAR-5 > 100 µM | UACC-62 > 100 µM | K562 > 100 µM | DU-145 > 100 µM | T47D > 100 µM | COLO 205 > 100 µM | ACHN > 100 µM | SK-MEL-2 > 100 µM | RPMI-8226 52.2 µM | TK-10 > 100 µM | NCI/ADR-RES > 100 µM

Cn1c2ccccc2n2c(=O)c3cccnc3c(C#N)c12
inactive: RXF 393 > 100 µM | MDA-N > 100 µM | SW-620 19.6 µM | U-251 > 100 µM | HT-29 63 µM | OVCAR-5 > 100 µM | DU-145 > 100 µM | T47D > 100 µM | COLO 205 24.7 µM | ACHN 31.1 µM | RPMI-8226 > 100 µM | TK-10 > 100 µM | NCI/ADR-RES 70.3 µM

O=C1CSC(c2ccccc2[N+](=O)[O-])N1c1ccc(-n2c(-c3ccccc3)nc3ccccc3c2=O)cc1 (stereo not given)
inactive: IGROV-1 46.1 µM | MDA-N > 100 µM | SW-620 64.3 µM | U-251 17.7 µM | HCC 2998 46.5 µM | HT-29 54.3 µM | A549 63.2 µM | OVCAR-5 > 100 µM | UACC-62 33.4 µM | K562 79.6 µM | DU-145 > 100 µM | T47D 23.7 µM | COLO 205 99.1 µM | ACHN 61 µM | SK-MEL-2 55.8 µM | RPMI-8226 > 100 µM | TK-10 29.6 µM | NCI/ADR-RES > 100 µM

Cc1oc2c(c1C)S(=O)(=O)C(C#N)=CN2
inactive: IGROV-1 > 100 µM | MDA-N > 100 µM | SW-620 > 100 µM | U-251 > 100 µM | HCC 2998 > 100 µM | HT-29 > 100 µM | A549 > 100 µM | OVCAR-5 > 100 µM | UACC-62 > 100 µM | K562 > 100 µM | DU-145 > 100 µM | T47D > 100 µM | COLO 205 > 100 µM | ACHN > 100 µM | SK-MEL-2 > 100 µM | RPMI-8226 > 100 µM | TK-10 > 100 µM | NCI/ADR-RES > 100 µM

COCC[N+](CCNC(=O)c1cccc2c(N)c3cccc(C)c3nc12)(CCOC)Cc1ccc([N+](=O)[O-])cc1
inactive: IGROV-1 11.1 µM | MDA-N 31.1 µM | SW-620 21.1 µM | U-251 19.8 µM | HCC 2998 4.92 µM | HT-29 18.8 µM | A549 13.5 µM | OVCAR-5 30.9 µM | UACC-62 16 µM | DU-145 17 µM | T47D 18.1 µM | COLO 205 16.1 µM | ACHN 32.4 µM | SK-MEL-2 28.8 µM | RPMI-8226 5.6 µM | TK-10 67.3 µM | NCI/ADR-RES 88.3 µM

COc1ccccc1N1C(=O)CS(=O)(=O)C1c1cccc(Oc2ccccc2)c1 (stereo not given)
inactive: RXF 393 16.9 µM | MDA-N 4.3 µM | SW-620 19.4 µM | U-251 16.1 µM | HT-29 21.4 µM | A549 18.9 µM | OVCAR-5 26.2 µM | UACC-62 12.1 µM | K562 4.06 µM | DU-145 23.9 µM | T47D 15.6 µM | COLO 205 16.1 µM | ACHN 19 µM | SK-MEL-2 13 µM | TK-10 18.5 µM | NCI/ADR-RES 16.9 µM
